From US20170007704A1, “CARRIER AND PHARMACEUTICAL COMPOSITIONS FOR INTRASINAL DELIVERY AND USES THEREOF” (priority 2015, published 2017)

System: multi-drug resistant P. aeruginosa
Test: Susceptibility of the patient's positive bacterial culture
Type: cell-based
Conditions: positive bacterial culture of the patient before treatment
Excerpt: The patient was a person with an 8 year history of chronic rhinosinusitis with daily and recurrent symptoms including facial congestion, facial pain and pressure, headaches and mucopurulent nasal drainage. The patient achieved limited success with previous treatments which included oral antibiotics, oral/nasal corticosteroids, antibiotic irrigation, saline rinses and suctioning. A positive bacterial culture indicated the presence of multi-drug resistant P. aeruginosa, susceptible only to colistimethate. Colistimethate was only commercially available as a solution for intravenous infusion, requiring hospitalization and constant monitoring for neurotoxicity and nephrotoxicity. In order to avoid the intravenous route of administration and the necessary hospitalization, a novel topical formulation was prescribed, consisting of: […]

Substance: colistimethate
- susceptibility of cultured pathogen: susceptible
